Assay results reported in patent publication US5436229A, “Bisulfite adducts of arginine aldehydes” (Eli Lilly and Company, priority 1994, dated 1995).
Non-standard residues stand in square brackets, D forms with d. Residues, ends and D or L forms follow the SMILES beside them. ξ: configuration not given here. dPip = O=C(O)[C@H]1CCCCN1; dThz = O=C(O)[C@H]1CSCN1; ξAze = O=C(O)C1CCN1

Legend:
[1] = Index of Bioavailability (plasma TT AUC, oral vs i.v.); format: in vivo; details: rats, oral vs i.v. bolus
From the text: Assays are done in duplicate and averaged.
Each sample population represents alternating sequential time points.

[2] = biological target: human thrombin (Homo sapiens, UniProt P00734); experiment: Thrombin amidase inhibition (Kass), chromogenic substrate; format: biochemical
In short: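 Purified human thrombin (8 NIH units/ml solution) mixed with compound in 50% aqueous methanol and 0.03M Tris, 0.15M NaCl, pH 7.4; chromogenic substrate (0.25 mg/ml solution) added, p-nitroaniline release followed at 405 nm. Free thrombin read from a standard curve; Kass (L/mol) is the mean over a range of compound concentrations.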

[3] = biological target: T1, Bovine trypsin (Bos taurus, UniProt P00760); experiment: Serine protease inhibition (Kass), trypsin; format: biochemical
T1 construct: Bovine trypsin is purchased from Worthington Biochemicals; purchased Worthington Biochemicals, Freehold, N.J
T1 sequence (P00760 24-246): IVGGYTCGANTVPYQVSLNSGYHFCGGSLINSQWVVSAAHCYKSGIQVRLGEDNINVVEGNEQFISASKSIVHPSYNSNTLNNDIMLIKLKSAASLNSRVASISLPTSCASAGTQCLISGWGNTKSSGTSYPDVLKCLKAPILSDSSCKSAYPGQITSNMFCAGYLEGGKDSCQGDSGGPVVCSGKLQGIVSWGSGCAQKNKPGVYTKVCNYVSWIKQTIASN
In short: (§1)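 Chromogenic p-nitroanilide substrate assays run as for human thrombin; trypsin with N-Benzoyl-Phe-Val-Arg-p-nitroanilide, human factor Xa with N-Benzoyl-Ile-Glu-Gly-Arg-p-nitroanilide. Values are association constants (Kass).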

[4] = biological target: T2, Human plasmin (Homo sapiens, UniProt P00747); experiment: Serine protease inhibition (Kass), plasmin; format: biochemical
T2 construct: Human plasmin is purchased from Boehringer Mannheim; purchased Boehringer Mannheim, Indianapolis, Ind
In short: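 Chromogenic enzyme assays run as for human thrombin, giving association constants (Kass). Human plasmin used with H-D-Val-Leu-Lys-p-nitroanilide; t-PA (single-chain nt-PA or modified mt-PA6) with H-D-Ile-Pro-Arg-p-nitroanilide.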

[5] = biological target: T3, factor Xa (Homo sapiens, UniProt P00742); experiment: Serine protease inhibition (Kass), factor Xa; format: biochemical
T3 construct: Human factors X, Xa, IXa, XIa, and XIIa are purchased from Enzyme Research Laboratories; purchased Enzyme Research Laboratories, South Bend, Ind
In short: as §1

[6] = system: human plasma; experiment: Human plasma anticoagulation, thrombin time (TT); format: biochemical
In short: (§2)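 Compounds added across a wide concentration range to human plasma; APTT, PT and TT clotting times measured on a coagulation instrument, bovine thrombin used for plasma assays. Concentration doubling clotting time estimated by linear extrapolation.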

[7] = biological target: T4, tissue plasminogen activator (t-PA) (Homo sapiens, UniProt P00750); experiment: Serine protease inhibition (Kass), t-PA; format: biochemical
T4 construct: purchased American Diagnostica, Greenwich, Conn

[8] = system: human plasma; experiment: Human plasma anticoagulation, prothrombin time (PT); format: biochemical
In short: as §2

[9] = system: human plasma; experiment: Human plasma anticoagulation, activated partial thromboplastin time (APTT); format: biochemical
In short: as §2

T2 sequence (P00747 581-810 limits assumed): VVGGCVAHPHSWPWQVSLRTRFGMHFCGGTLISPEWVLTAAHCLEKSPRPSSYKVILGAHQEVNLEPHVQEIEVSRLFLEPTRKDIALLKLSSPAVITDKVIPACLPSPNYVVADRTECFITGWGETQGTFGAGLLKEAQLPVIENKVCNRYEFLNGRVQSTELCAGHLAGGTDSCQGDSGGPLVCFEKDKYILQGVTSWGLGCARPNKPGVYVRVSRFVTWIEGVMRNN
T2 sequence (P00747 97-580 partner limits assumed): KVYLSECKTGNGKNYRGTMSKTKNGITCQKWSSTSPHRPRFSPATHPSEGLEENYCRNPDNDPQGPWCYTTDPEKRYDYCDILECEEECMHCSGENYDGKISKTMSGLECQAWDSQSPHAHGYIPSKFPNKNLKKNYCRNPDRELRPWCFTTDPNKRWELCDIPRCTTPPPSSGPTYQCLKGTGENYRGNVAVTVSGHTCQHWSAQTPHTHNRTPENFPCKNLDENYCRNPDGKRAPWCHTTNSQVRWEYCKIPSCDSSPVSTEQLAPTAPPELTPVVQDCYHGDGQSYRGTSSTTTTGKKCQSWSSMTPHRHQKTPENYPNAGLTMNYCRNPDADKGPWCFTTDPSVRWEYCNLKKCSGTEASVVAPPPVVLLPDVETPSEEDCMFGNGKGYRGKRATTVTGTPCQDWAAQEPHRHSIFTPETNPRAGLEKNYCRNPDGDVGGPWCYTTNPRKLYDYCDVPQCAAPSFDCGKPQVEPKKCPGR
T4 sequence (P00750 36-562): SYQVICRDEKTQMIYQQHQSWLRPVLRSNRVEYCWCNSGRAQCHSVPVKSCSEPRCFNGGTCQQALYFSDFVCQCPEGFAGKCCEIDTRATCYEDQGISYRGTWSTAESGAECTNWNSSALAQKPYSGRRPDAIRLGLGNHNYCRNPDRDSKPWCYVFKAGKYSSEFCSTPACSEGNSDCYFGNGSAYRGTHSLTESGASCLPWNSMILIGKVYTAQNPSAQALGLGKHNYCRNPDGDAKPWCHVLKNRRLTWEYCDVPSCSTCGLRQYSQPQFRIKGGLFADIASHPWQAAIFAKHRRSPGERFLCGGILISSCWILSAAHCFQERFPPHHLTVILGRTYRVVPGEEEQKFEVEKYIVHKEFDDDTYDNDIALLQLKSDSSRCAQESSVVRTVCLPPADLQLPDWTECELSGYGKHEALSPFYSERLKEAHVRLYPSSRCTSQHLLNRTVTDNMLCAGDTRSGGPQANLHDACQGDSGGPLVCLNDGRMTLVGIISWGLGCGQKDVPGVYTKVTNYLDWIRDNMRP
T3 sequence (P00742 235-488 limits assumed): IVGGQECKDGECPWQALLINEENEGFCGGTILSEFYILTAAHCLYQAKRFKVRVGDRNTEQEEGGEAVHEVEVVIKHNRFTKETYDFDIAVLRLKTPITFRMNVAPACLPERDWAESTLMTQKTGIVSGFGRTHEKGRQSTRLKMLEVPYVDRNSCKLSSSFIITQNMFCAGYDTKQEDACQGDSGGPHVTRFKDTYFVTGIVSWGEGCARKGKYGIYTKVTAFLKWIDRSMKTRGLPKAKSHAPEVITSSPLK
T3 sequence (P00742 41-179 partner limits assumed): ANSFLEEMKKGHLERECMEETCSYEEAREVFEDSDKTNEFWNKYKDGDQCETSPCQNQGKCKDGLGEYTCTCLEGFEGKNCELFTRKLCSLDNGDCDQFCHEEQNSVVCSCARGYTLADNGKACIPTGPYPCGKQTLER

Row | Kass Xa [5] [L/mol × 10^6] | Compound | Percent Relative Activity (Index of Bioavailability) [1] [%] | Kass Human Thrombin [2] [L/mol × 10^6] | Kass Trypsin [3] [L/mol × 10^6] | Kass Plasmin [4] [L/mol × 10^6] | 2 × Clotting time TT [6] [ng/mL] | Kass t-PA [7] [L/mol × 10^6] | 2 × Clotting time PT [8] | 2 × Clotting time APTT [9]
1 | – | Cl.Cl.N=C(N)NCCC[C@@H](C=O)NC(=O)C1CCN1C(=O)[C@H]1CCCCN1 (stereo partly drawn) [Example 3, D-Homoprolinyl-L-Azetidinyl-L-Arginine Aldehyde Dihydrochloride] (H-[dPip]-[ξAze]-Arg-aldehyde) | 32 | 45 | – | – | – | – | – | –
2 | – | Cl.Cl.N=C(N)NCCC[C@@H](C=O)NC(=O)[C@@H]1CCCN1C(=O)[C@H]1CSCN1 [Example 4, D-Thiazolidinyl-4-Carbonyl-L-Prolinyl-L-Arginine Aldehyde Dihydrochloride] (H-[dThz]-Pro-Arg-aldehyde) | 16 | 5 | – | – | – | – | – | –
3 | – | Cl.Cl.N=C(N)NCCC[C@@H](C=O)NC(=O)[C@@H]1CCCN1C(=O)C1CNCCN1 (stereo partly drawn) [Example 9, D,L-Piperazin-2-yl-L-Prolinyl-L-Arginine Aldehyde Dihydrochloride] | 19 | 121 | – | – | – | – | – | –
4 | – | Cl.Cl.N=C(N)NCCC[C@@H](C=O)NC(=O)[C@@H]1CCCN1C(=O)C1NCCS1 (stereo partly drawn) [Example 10, D,L-Thiazolidinyl-2-carbonyl-L-prolinyl-L-arginine aldehyde dihydrochloride] | 5 | 27 | – | – | – | – | – | –
5 | – | CNC(CC(=O)N1CCC[C@H]1C(=O)N[C@H](C=O)CCCNC(=N)N)c1ccccc1.Cl.Cl.O.O (stereo partly drawn) [Example 15, N-methyl-3-amino-3-phenylpropionyl-L-Prolinyl-L-Arginine Aldehyde Dihydrochloride Dihydrate] | 28 | 70 | – | – | – | – | – | –
6 | – | CNC(CC(=O)N1CCC[C@H]1C(=O)N[C@H](C=O)CCCNC(=N)N)C1CCCCC1.CNC(CC(=O)N1CCC[C@H]1C(=O)N[C@H](C=O)CCCNC(=N)N)C1CCCCC1.Cl.Cl.Cl.Cl.O (stereo partly drawn) [Example 16, N-methyl-3-amino-3-cyclohexyl propionyl-L-Pro-L-Arg aldehyde dihydrochloride hemihydrate] | 19 | 85 | – | – | – | – | – | –
7 | – | CNCC(Cc1ccccc1)C(=O)N1CCC[C@H]1C(=O)N[C@H](C=O)CCCNC(=N)N.Cl.Cl.O (stereo partly drawn) [Example 17, N-Methyl-3-amino-2-benzylpropionyl-L-Pro-L-Arg Aldehyde Dihydrochloride Monohydrate] | 8 | 12 | – | – | – | – | – | –
8 | – | Cl.Cl.Cl.N=C(N)NCCC[C@@H](C=O)NC(=O)[C@@H]1CCCN1C(=O)C1CCCCC1N.O (stereo partly drawn) [Example 22, 2-aminocyclohexylcarbonyl-L-Pro-L-Arginine Aldehyde Trihydrochloride Monohydrate] | 15 | 39 | – | – | – | – | – | –
9 | 0.080 | Cl.N=C(N)NCCC[C@@H](C=O)NC(=O)[C@@H]1CCCN1C(=O)[C@@H](Cc1ccccc1)NC(=O)c1cccnc1 [Example 47, N-(nicotinoyl)-D-phenylalanyl-L-Prolinyl-L-Arginine Aldehyde Hydrochloride] | 3 | 58 | 12 | 0.41 | 47 | 0.17 | 1,700 ng/mL | 1,300 ng/mL
10 | 2.4 | CS(=O)(=O)N[C@H](Cc1ccccc1)C(=O)N1CCC[C@H]1C(=O)N[C@H](C=O)CCCNC(=N)N.Cl [Example 51, N-(methylsulfonyl)-D-phenylalanyl-L-Prolinyl-L-Arginine Aldehyde Hydrochloride] | 27 | 690 | 220 | 17 | 21 | 13 | 530 ng/mL | 330 ng/mL
11 | 2.6 | CCS(=O)(=O)N[C@H](Cc1ccccc1)C(=O)N1CCC[C@H]1C(=O)N[C@H](C=O)CCCNC(=N)N.Cl [Example 52, N-(ethylsulfonyl)-D-phenylalanyl-L-Prolinyl-L-Arginine Aldehyde Hydrochloride] | 31 | 450 | 260 | 31 | 9 | 2.9 | 660 ng/mL | 260 ng/mL
12 | – | CN[C@@H](C(=O)N1CCC[C@H]1C(=O)N[C@@H](CCCNC(=N)N)C(O)S(=O)(=O)[O-])c1ccccc1.O=S(=O)(O)O.[Na+] (stereo partly drawn) [Example 79, N-methyl-D-phenylglycinyl-L-prolinyl-NH-CH[(CH2)3 NH-C(NH)-NH2]-C(OH)SO3 Na.H2 SO4] | 21 | 239 | 84 | 1.8 | – | 0.01 | – | –
13 | – | N=C(N)NCCC[C@H](NC(=O)[C@@H]1CCCN1C(=O)C1CC2CCCCC2CN1)C(O)S(=O)(=O)[O-].O=S(=O)(O)O.[Na+] (stereo partly drawn) [Example 80, D-1,2,3,4,4a,6,7,8,8a-Perhydroisoquinolin-3-yl carbonyl-L-prolinyl-L-arginine aldehyde bisulfite sulfate] | 57 | 62 | 137 | 2.7 | – | 0.01 | – | –
14 | – | D-Prolinyl-L-Prolinyl-L-Arginine Aldehyde Dihydrochloride [Example 2] | 36 | 12 | – | – | – | – | – | –
15 | – | N-methyl-D-Phg-Pro-Arg-H.H2 SO4 [79 (Step A)] | 18 | 236 | 87 | 1.3 | – | 0.01 | – | –

Row | Compound | Kass Xa [5] [L/mol × 10^6] | Percent Relative Activity (Index of Bioavailability) [1] [%] | Kass Human Thrombin [2] [L/mol × 10^6] | Kass Trypsin [3] [L/mol × 10^6] | Kass Plasmin [4] [L/mol × 10^6] | 2 × Clotting time TT [6] [ng/mL] | Kass t-PA [7] [L/mol × 10^6] | 2 × Clotting time PT [8] | 2 × Clotting time APTT [9]
16 | Cl.Cn1c(C(=O)N[C@H](Cc2ccccc2)C(=O)N2CCC[C@H]2C(=O)N[C@H](C=O)CCCNC(=N)N)cc2ccccc21 [Example 45, N-(1-methylindolyl-2-carbonyl)-D-phenylalanyl-L-Prolinyl-L-Arginine Aldehyde Hydrochloride] | 0.51 | 2 | 850 | 120 | 7.9 | 43 | 31 | 870 ng/mL | 440 ng/mL
17 | Cl.N=C(N)NCCC[C@@H](C=O)NC(=O)[C@@H]1CCCN1C(=O)[C@@H](Cc1ccccc1)NC(=O)c1cc2ccccc2cn1 [Example 46, N-(isoquinolinyl-2-carbonyl)-D-phenylalanyl-L-Prolinyl-L-Arginine Aldehyde Hydrochloride] | 0.16 | 1 | 110 | 22 | 0.55 | 35 | 0.32 | 1,400 ng/mL | 1,100 ng/mL
